This experiment concerns the target T1, Axl (Homo sapiens, UniProt P30530).
T1 construct: endogenous in cells; host or cells: HeLa cells
T1 sequence (P30530 26-894): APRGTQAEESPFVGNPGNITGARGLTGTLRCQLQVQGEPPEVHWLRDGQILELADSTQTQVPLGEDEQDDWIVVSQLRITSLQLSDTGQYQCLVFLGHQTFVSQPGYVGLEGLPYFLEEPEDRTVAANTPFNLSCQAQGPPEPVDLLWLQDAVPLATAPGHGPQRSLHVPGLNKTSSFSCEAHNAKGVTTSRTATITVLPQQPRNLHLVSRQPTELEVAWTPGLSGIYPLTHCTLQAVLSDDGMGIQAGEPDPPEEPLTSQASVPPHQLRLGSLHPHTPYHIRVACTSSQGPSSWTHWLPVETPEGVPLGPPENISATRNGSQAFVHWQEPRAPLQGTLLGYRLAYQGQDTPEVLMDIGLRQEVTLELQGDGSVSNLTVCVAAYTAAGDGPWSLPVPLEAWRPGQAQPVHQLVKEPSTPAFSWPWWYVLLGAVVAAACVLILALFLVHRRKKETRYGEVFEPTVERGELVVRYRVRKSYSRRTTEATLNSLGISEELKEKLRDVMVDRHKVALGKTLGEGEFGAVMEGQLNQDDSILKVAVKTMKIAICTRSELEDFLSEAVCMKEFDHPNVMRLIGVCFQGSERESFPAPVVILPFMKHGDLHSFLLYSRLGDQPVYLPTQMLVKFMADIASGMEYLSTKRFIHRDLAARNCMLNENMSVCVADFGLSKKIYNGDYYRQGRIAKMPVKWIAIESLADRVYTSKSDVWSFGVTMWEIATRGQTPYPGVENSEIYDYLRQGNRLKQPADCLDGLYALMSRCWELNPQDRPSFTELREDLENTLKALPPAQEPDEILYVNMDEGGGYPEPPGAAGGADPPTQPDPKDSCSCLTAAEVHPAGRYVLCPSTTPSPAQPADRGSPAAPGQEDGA
The experiment is described as follows: Phospho-Akt in-cell Western assay (inhibition of Axl activity). The format is cell-based. In a few lines:
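HeLa cells on poly-L-lysine, starved 24 h in 0.5% FCS DMEM with Axl/Fc 500 ng/mL, pre-treated with compound 1 h at 37° C. Axl stimulated 5 min by anti-Axl/anti-mouse antibody cross-linking. Fixed cells probed with anti-phospho-Akt and HRP secondary, chemiluminescence read.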

[1] abbreviates: inhibition of Axl activity, phospho-Akt in-cell Western assay, Table 1.
[2] abbreviates: inhibition of Axl activity, Table 1.
[3] abbreviates: Table 7, Hela cells, Axl antibody cross-linking stimulation, phospho-Akt chemiluminescence.
[4] abbreviates: Table 5, Hela cells, Axl antibody cross-linking stimulation, phospho-Akt chemiluminescence.
Setting [5] is: Table 3, Hela cells, Axl antibody cross-linking stimulation, phospho-Akt chemiluminescence.
Setting [6] is: Table 2, Hela cells, Axl antibody cross-linking stimulation, phospho-Akt chemiluminescence.

The term IC50 denotes the midpoint of a concentration-inhibition curve. Low values mean greater potency, high ones weaker potency. Take `Cc1ccc(C(=O)n2nc(Nc3ccc(OCCN4CCCC4)cc3)nc2N)cc1` [compound #12, 5-Amino-1-(4-methylphenyl)carbonyl-3-[4-[2-(pyrrolidin-1-yl)ethoxy]phenylamino]-1H-1,2,4-triazole]: the IC50 under setting [1] is < 1000 nM. As to `CCOc1cccc(Nc2nc(N)n(C(=O)c3ccc(OC(C)C)cc3)n2)c1` [compound 125, 5-amino-3-[3-(ethoxy)phenylamino]-1-(4-(iso-propoxy)phenyl)carbonyl-1H-1,2,4-triazole], the IC50 under setting [2] is 1000 to 10000 nM. `CCCCOc1ccc(NC(=O)n2nc(Nc3ccc(OCCN4CCCCC4)cc3)nc2N)cc1` [compound 46, 5-amino-N-(4-butoxyphenyl)-3-[4-[2-(piperidin-1-yl)ethoxy]phenylamino]-1H-1,2,4-triazole-1-carboxamide] showed an IC50 under setting [3] of 1000 to 10000 nM. As for `Cc1cccc(C(=O)n2nc(Nc3ccc4cnn(C)c4c3)nc2N)c1` [compound 254, 5-amino-3-(1H-1-methyl-indazol-6-yl)amino-1-(3-methylphenyl)carbonyl-1H-1,2,4-triazole], under setting [4], the IC50 is > 20000 nM.

For `Nc1nc(Nc2ccc(N3CCOCC3)cc2)nn1C(=O)c1cccc(O)c1` [compound 67, 5-amino-1-(3-(hydroxy)phenyl)carbonyl-3-(4-(morpholin-4-yl)phenylamino)-1H-1,2,4-triazole], the concentration for half-maximal inhibition (IC50) under setting [2] was in the range of 1000 to 10000 nM.

Molecule `COc1cccc(Nc2nc(N)n(C(=O)c3ccc(OC(C)C)cc3)n2)c1` [compound 121, 5-amino-1-(4-(iso-propoxy)phenyl)carbonyl-3-[3-(methoxy)phenylamino]-1H-1,2,4-triazole] gave an IC50 under setting [2] of 1000 to 10000 nM. The same measure, in the same setting: to `CC(C)Oc1ccc(C(=O)n2nc(Nc3cccc(OCC#N)c3)nc2N)cc1` [(Ia-21), 5-amino-3-[3-(cyanomethoxy)phenylamino]-1-(4-(iso-propoxy)phenyl)carbonyl-1H-1,2,4-triazole] belongs 1000 to 10000 nM. For `Nc1nc(Nc2ccc(OCCN3CCCC3=O)cc2)nn1C(=O)c1ccc(N2CCOCC2)cc1` [compound 339, 5-amino-1-(4-(morpholin-4-yl)phenyl)carbonyl-3-[4-[2-(pyrrolidin-2-on-1-yl)ethoxy]phenylamino]-1H-1,2,4-triazole], the IC50 under setting [1] fell in the range of 1000 to 10000 nM. Same read-out and setting: under `Nc1nc(Nc2ccc(OCCN3CCCC3)cc2)nn1C(=O)c1ccc(Oc2ccccc2)cc1` [compound 269, 5-amino-1-(4-(phenoxy)phenyl)carbonyl-3-[4-[2-(pyrrolidin-1-yl)ethoxy]phenylamino]-1H-1,2,4-triazole] stands < 1000 nM. As to `Cc1cccc(C(=O)n2nc(Nc3ccc4c(c3)OCCO4)nc2N)c1` [compound 96, 5-amino-3-(1,4-benzodioxan-6-yl)amino-1-(3-(methyl)phenyl)carbonyl-1H-1,2,4-triazole], under setting [2], the half-maximal inhibitory concentration (IC50) lay within 1000 to 10000 nM. Same read-out and setting: to `Cc1ccc(C(=O)n2nc(Nc3ccc4c(c3)OCCO4)nc2N)cc1` [compound 104, 5-amino-3-(1,4-benzodioxan-6-yl)amino-1-(4-(methyl)phenyl)carbonyl-1H-1,2,4-triazole] belongs 1000 to 10000 nM; to `Nc1nc(Nc2ccc(N3CCOCC3)cc2)nn1C(=O)c1cccc([N+](=O)[O-])c1` [compound 72, 5-amino-3-(4-(morpholin-4-yl)phenylamino)-1-(3-(nitro)phenyl)carbonyl-1H-1,2,4-triazole], 1000 to 10000 nM. As to `Nc1nc(Nc2ccc(OCCN3CCCC3)cc2)nn1C(=O)c1cc2ccccc2[nH]1` [compound #6, 5-Amino-1-(1H-indol-2-yl)carbonyl-3-[4-[2-(pyrrolidin-1-yl)ethoxy]phenylamino]-1H-1,2,4-triazole], the IC50 under setting [5] is < 1000 nM. The molecule `Nc1nc(Nc2ccc(N3CCOCC3)cc2)nn1C(=O)c1cccc(Cl)c1` [compound 74, 5-amino-1-(3-(chloro)phenyl)carbonyl-3-(4-(morpholin-4-yl)phenylamino)-1H-1,2,4-triazole] gave an IC50 under setting [2] of 1000 to 10000 nM. With `Nc1nc(Nc2ccc(OCCN3CCCC3)cc2)nn1C(=O)c1c[nH]c2ccccc12` [compound 366, 5-amino-1-(1H-indol-3-yl)carbonyl-3-[4-[2-(pyrrolidin-1-yl)ethoxy]phenylamino]-1H-1,2,4-triazole], the IC50 under setting [5] lay in the range of 1000 to 10000 nM. As for `CC(=O)N(C)c1ccc(Nc2nc(N)n(C(=O)NC3CCCCC3)n2)cc1` [compound 185, 3-[4-(acetyl(methyl)amino)phenyl]amino-5-amino-N-cyclohexyl-1H-1,2,4-triazole-1-carboxamide], under setting [3], the IC50 is > 20000 nM. As for `Cc1ccc(C(=O)n2nc(Nc3ccc(OCCCN(C)C)cc3)nc2N)cc1` [compound 91, 5-amino-3-[4-[3-(dimethylamino)propoxy]phenylamino]-1-(4-(methyl)phenyl)carbonyl-1H-1,2,4-triazole], under setting [1], the IC50 is 1000 to 10000 nM. `COc1ccccc1C(=O)n1nc(Nc2ccc3c(c2)OCCO3)nc1N` [compound 106, 5-amino-3-(1,4-benzodioxan-6-yl)amino-1-(2-(methyloxy)phenyl)carbonyl-1H-1,2,4-triazole]: the IC50 under setting [2] is > 20000 nM. Under setting [6], `CC(C)Oc1ccc(C(=O)n2nc(N)nc2Nc2ccc(N3CCN(C)CC3)cc2)cc1` [compound 360, 3-amino-1-(4-(iso-propoxy)phenyl)carbonyl-5-(4-(4-methylpiperazin-1-yl)phenylamino]-1H-1,2,4-triazole] displayed an IC50 of 1000 to 10000 nM. For `Cc1ccc(C(=O)n2nc(Nc3ccc(OCCN4CCCC4)cc3)nc2N)cn1` [compound #28, 5-Amino-1-(6-(methyl)pyridin-3-yl)carbonyl-3-[4-[2-(pyrrolidin-1-yl)ethoxy]phenylamino]-1H-1,2,4-triazole], the IC50 under setting [5] is 1000 to 10000 nM. Turning to `CS(=O)(=O)N1CCC(Nc2nc(N)n(C(=O)c3c(F)cccc3F)n2)CC1` [compound 392, 5-amino-1-(2,6-difluorophenyl)carbonyl-3-(1-methylsulfonylpiperidin-4-yl)amino-1H-1,2,4-triazole], under setting [4], the IC50 was > 20000 nM.

The molecule `Cc1cccc(C(=O)n2nc(Nc3ccc(OCCN4CCSCC4)cc3)nc2N)c1` [compound 61] came in with an IC50 under setting [2] of 1000 to 10000 nM. As for `CSc1ccc(C(=O)n2nc(N)nc2Nc2ccc3c(c2)OCCO3)cc1` [compound 238, 3-amino-5-(1,4-benzodioxan-6-yl)amino-1-(4-thiomethylphenyl)carbonyl-1H-1,2,4-triazole], the concentration for half-maximal inhibition (IC50) under setting [6] was > 20000 nM.

As to `CN1CCN(c2ccc(Nc3nc(N)n(C(=O)c4ccc(N(C)C)cc4)n3)cc2)CC1` [compound 361, 5-amino-1-(4-(dimethylamino)phenyl)carbonyl-3-[4-(4-methylpiperazin-1-yl)phenylamino]-1H-1,2,4-triazole], under setting [1], the IC50 is < 1000 nM. Still for that read-out and setting: under `COc1ccc(C(=O)n2nc(Nc3ccc(OCCN4CCCCC4)cc3)nc2N)cc1OC` [compound #21, 5-Amino-1-(3,4-(dimethoxy)phenyl)carbonyl-3-[4-[2-(piperidin-1-yl)ethoxy]phenylamino]-1H-1,2,4-triazole] stands < 1000 nM. On to `Nc1nc(Nc2ccc(OCCn3ccnc3)cc2)nn1C(=O)c1cc2ccccc2s1` [compound 379, 5-amino-1-(benzo[b]thiophen-2-yl)carbonyl-3-[4-[2-(imidazol-1-yl)ethoxy]phenylamino]-1H-1,2,4-triazole], for which the half-inhibitory concentration (IC50) under setting [5] is < 1000 nM.

Take `CC1(C)Oc2ccc(C(=O)n3nc(Nc4ccc(OCCN5CCCCC5)cc4)nc3N)cc2NC1=O` [compound 78, 5-amino-1-(2,2-dimethyl-2H-benzo[b][1,4]oxazin-3(4H)-on-6-yl)carbonyl-3-[4-[2-(piperidin-1-yl)ethoxy]phenylamino]-1H-1,2,4-triazole]: the half-inhibitory concentration (IC50) under setting [5] is < 1000 nM.

As to `COC(=O)COc1cccc(Nc2nc(N)n(C(=O)c3ccc(OC(C)C)cc3)n2)c1` [compound 135, 5-amino-1-(4-(iso-propoxy)phenyl)carbonyl-3-[3-(methoxycarbonylmethoxy)phenylamino]-1H-1,2,4-triazole], the half-maximal inhibitory concentration (IC50) under setting [2] fell in the range of 1000 to 10000 nM. Still for that read-out and setting: to `Cc1ccc(C(=O)n2nc(Nc3ccc(O)cc3)nc2N)cc1` [(Ia-4), 5-amino-3-[4-(hydroxy)phenylamino]-1-(4-methylphenyl)carbonyl-1H-1,2,4-triazole] belongs > 20000 nM. Regarding `CC(C)Oc1ccc(C(=O)n2nc(Nc3ccc(N4CCCCC4)cc3)nc2N)cc1` [compound #26, 5-Amino-1-(4-(iso-propoxy)phenyl)carbonyl-3-[4-(piperidin-1-yl)phenylamino]-1H-1,2,4-triazole], the half-inhibitory concentration (IC50) under setting [1] was 1000 to 10000 nM.

The values above are taken from US8389557B2, “Triazole derivatives useful as Axl inhibitors” (Rigel Pharmaceuticals, Inc., priority 2005, dated 2013).
